Experimental data from patent US6681132B1, “Sodium magnetic reasonance imaging used in diagnosing tumors and assessing response to treatment” (The Trustees of Columbia University in the City of New York, priority 1999, dated 2004).

Experiments:
[1] = test system: PC3 tumors; assay: Inversion recovery (IR) weighted sodium MRI of PC3 tumors after chemotherapy; format: in vivo, nude mice; conditions: for increase in maximum IR sodium image intensity: PC3 tumors, 24 hrs vs predrug, 25 msec inversion time, normalized to brighter phantom, taxotere 1.5 mg, VP-16 0.2-0.4 mg, femoral vein
Experimental: (A) Chemotherapy and inversion recovery MR imaging—Following acquisition of control images, antineoplastics were administered. All IR images and SQ images were normalized to the brightest phantom within each slice (i.e., 40% Ficoll for IR and 30% Ficoll for SQ respectively). All tumors were analyzed by examining changes in intensity at the brightest—usually central area—of the tumor image. It was clearly identifiable both from manual examination with line profiles or from the pixel density histogram derived from a region of interest analysis. […] Results from PC3 tumors (solid lines, filled circles) and DU145 tumors (dashed lines, open circles) are plotted together. In two experiments with control saline injections (not shown in graphs), there were small decreases of 5.5% (NS) at 24 hours and 3.5% (NS) at 48 hours.
In vivo detection of antineoplastic effects using weighted sodium MR images—Examination of the effect of chemotherapy on the IR sodium image in a series of PC3 and DU145 tumors was studied. Control and post-therapy images were acquired in sixteen mice, and tumors in two additional mice had images reacquired at both 24 and 48 hrs following control saline injection. […] Results are plotted as change in maximum image intensity for each drug separately (top panel, FIG. 4, taxotere; bottom panel, FIG. 4, VP-16 etoposide). Elevation is significant for each drug taken separately for the more numerous PC3 tumor experiments (taxotere, 32% increase at p<0.001, n=5; VP-16, 38% increase at p<0.0005, n=7); and is also significant for all PC3 experiments measured at 48 hrs (28%, p<0.05, n=11).
All imaging experiments were performed on a high field (4.23 Tesla) whole body MRI system. A small quadrature birdcage radiofrequency coil (50 mm ID, Morris Inc.) and a high strength gradient insert coil (30 mT/m, Bruker model G-33) were employed. Acquisition parameters were TR=100 msec, TE=5.6 msec, FOV=40 mm, slice thickness=2.5 mm, flip angle=90° , inversion time=25 msec, acquisition matrix was 64×64×8. The two phantoms on all animal images shown were identical (P1-30% Ficoll in 200 mM NaCl; P2-40% Ficoll in 200 mM NaCl). All animal images were normalized to the brighter phantom (e.g. P1 on the SQ, P2 on the IR). Animals were positioned in a specially designed animal holder, allowing for reproducible tumor placement.
Two adjacent slices from a 3 dimensional gradient echo image set of a PC3 tumor are shown before (FIGS. 5, A&B) and 48 hrs after (FIGS. 5, C&D) injection of 1.5 mg taxotere to the nude mouse. […] The second example illustrates the contribution of this technique at its limit of resolution.
Inversion recovery images (25 msec inversion time) were acquired for 16 nude mouse tumors following chemotherapy. […]

[2] = test system: PC3 cells; assay: Annexin V/FITC labeling of live (propidium iodide negative) cells, flow cytometry; format: cell-based, human
Experimental: Enhanced FITC fluorescence (annexin positive response; panel B) indicated reorientation of phosphatidylserine within the cell membrane. PI was added to detect dead cells, which was both PI and annexin positive, the latter response due to internal binding of an antibody to phosphatidylserine sites accessed through membrane rupture. Control cells were mostly PI and FITC negative. The percentage of live PC3 cells that were annexin positive (vertical axis) is plotted versus time (horizontal axis) for taxotere (10 nM; filled circles) and VP-16 (10 ug/ml; filled triangles). A one dimensional annexin histogram (FITC intensity) for live cells is shown for control (bottom insert) and after 24 hrs VP-16 (top insert). Flow cytometry was performed on the Becton/Dickenson FACStar II (APO-BrdU) or exCaliber flow system (Annexing) at the Columbia University Cancer Center and analyzed using CellQuest Software.
a) Early events—reorientation of phosphatidylserine: Live cells exposed to an Annexin V/FITC conjugated antibody. Enhanced fluorescence indicates reorientation of phosphatidylserine within the cell membrane (61, 93). Propidium iodide (PI) concurrently indicates cell viability. Since trypsin cleaves the annexin binding site, for dissociating cells from explanted tumor, trypsin containing collagenase preparations were not used. Cells are dissociated by mincing the tumor with surgical scissors and passing tissue repeatedly through needles while increasing the gauge. Cells are removed from tissue culture plates using 1 mM EDTA in Ca/Mg free PBS.
Flow cytometry was used to examine a second, presumably an earlier event in the apoptotic cascade, reorientation of phosphatidylserine within the cell membrane (FIG. 3.B.). Live cells were exposed to an annexin\V/FITC conjugated antibody. For annexin labeling, cells were cultured for 1 day, treated, then lifted off the culture plate using PBS plus EDTA and exposed to Annexin V/FITC conjugated antibody. Trypsin—which cleaves the antibody binding site—was avoided.

[3] = 24 hrs, VP-16 10 μg/ml, taxotere 10 nM

Structure (SMILES)	increase in maximum IR sodium image intensity [1]	detectability of tumor on IR image ([1]; elongated PC3 tumor, 24 hr after injection of 0.3 mg)	fraction of live cells (propidium iodide negative) in the annexin V positive peak ([2]; 10 μg/ml, maximum response (24 hrs))	annexin V response ([2]; 17 hrs, 10 μg/ml)	annexin V response [2, 3]	standard dose relative to Kd of annexin V dose response curve ([2]; Kd measured at 24 hrs, standard dose 10 μg/ml)	spatial change of tumor on inversion recovery image ([1]; PC3 tumor, 48 hrs after injection of 1.5 mg)	time by which markers for apoptosis were detectable ([2]; 10 nMol/L in culture)	time by which markers for apoptosis were pronounced ([2]; 10 nMol/L in culture)	standard dose relative to Kd of annexin V dose response curve ([2]; Kd measured at 48 hrs, standard dose 10 nM)	annexin V response ([2]; higher drug concentrations (10.0 μM) or later times (e.g. 48 hrs))
COc1cc([C@@H]2c3cc4c(cc3[C@@H](O[C@@H]3O[C@@H]5CO[C@@H](C)O[C@H]5[C@H](O)[C@H]3O)[C@H]3COC(=O)[C@H]23)OCO4)cc(OC)c1O [VP-16, etoposide]	38%	readily apparent following chemotherapy	Up to ⅔	apparent	pronounced	approximately 3 ×Kd					
CC(=O)O[C@@]12CO[C@@H]1C[C@H](O)[C@@]1(C)C(=O)[C@H](O)C3=C(C)[C@@H](OC(=O)[C@H](O)[C@@H](NC(=O)OC(C)(C)C)c4ccccc4)C[C@@](O)([C@@H](OC(=O)c4ccccc4)[C@H]21)C3(C)C [taxotere]	32%				much less pronounced		clear spatial broadening of the tumor	≤ 24 h	≤ 48 h	approximately 3 ×Kd	substantially greater
